Source: the Deep4Chem optical property database
One block for each compound: values may come before it.

Test: photoluminescence quantum yield (fraction); solvent given as SMILES

SMILES: CC(C)(C)c1ccc2c3c(c4ccc(C(C)(C)C)cc4c2c1)=[N+]1C(=C(c2ccccc2)c2c(Br)c4c5ccc(C(C)(C)C)cc5c5cc(C(C)(C)C)ccc5c4n2[B-]1(F)F)C=3Br
photoluminescence quantum yield (in C1CCCCC1): 0.03
photoluminescence quantum yield (in C1CCOC1): 0.02
photoluminescence quantum yield (in CC#N): 0.02
photoluminescence quantum yield (in Cc1ccccc1): 0.03
photoluminescence quantum yield (in ClCCl): 0.03

SMILES: COCCOc1cc(C=O)c(OCCOC)cc1C=O
photoluminescence quantum yield (in CC(C)(C)O): 0.11
photoluminescence quantum yield (in CC(C)CO): 0.1
photoluminescence quantum yield (in CC(C)O): 0.1
photoluminescence quantum yield (in CCCCO): 0.17
photoluminescence quantum yield (in CCCO): 0.19
photoluminescence quantum yield (in CCO): 0.18
photoluminescence quantum yield (in CN(C)C=O): 0.03
photoluminescence quantum yield (in CNC=O): 0.08
photoluminescence quantum yield (in CO): 0.22
photoluminescence quantum yield (in NC=O): 0.3
photoluminescence quantum yield (in O): 0.54

SMILES: Cc1ccc(N2C(c3ccccc3[N-]S(=O)(=O)c3ccc(C)cc3)=[NH+]C(c3ccccc3)C2c2ccccc2)cc1 (configuration not stated)
photoluminescence quantum yield (in Cc1ccccc1): 0.396

SMILES: COC(=O)c1ccc(C2=C3C=CC(C)=[N+]3[B-](F)(F)n3c(C)ccc32)cc1
photoluminescence quantum yield (in C1CCCCC1): 0.073
photoluminescence quantum yield (in C1CCOC1): 0.056
photoluminescence quantum yield (in CC#N): 0.039
photoluminescence quantum yield (in CCOC(C)=O): 0.053
photoluminescence quantum yield (in CO): 0.032
photoluminescence quantum yield (in Cc1ccccc1): 0.12
photoluminescence quantum yield (in ClC(Cl)Cl): 0.095

SMILES: CCCOc1ccc(/C=C/C=C/C=C/c2ccc([N+](=O)[O-])cc2)cc1
photoluminescence quantum yield (in CC1CCCCC1): 0.25
photoluminescence quantum yield (in CC#N): 0.011
photoluminescence quantum yield (in Cc1ccccc1): 0.54
photoluminescence quantum yield (in ClCCl): 0.06

SMILES: Cc1c(-c2ccc(N3c4ccccc4C(C)(C)c4ccccc43)cc2)ncnc1-c1ccc(N2c3ccccc3C(C)(C)c3ccccc32)cc1
photoluminescence quantum yield (in O=P(c1ccccc1)(c1ccccc1)c1ccccc1Oc1ccccc1P(=O)(c1ccccc1)c1ccccc1): 0.75

SMILES: CC(C)(C)c1ccc(-n2c(-c3ccc(N(c4ccc(-c5ccc(N(c6ccc(-c7nc8c9ccccc9c9ccccc9c8n7-c7ccc(C(C)(C)C)cc7)cc6)c6ccc(-c7nc8c9ccccc9c9ccccc9c8n7-c7ccc(C(C)(C)C)cc7)cc6)cc5)cc4)c4ccc(-c5nc6c7ccccc7c7ccccc7c6n5-c5ccc(C(C)(C)C)cc5)cc4)cc3)nc3c4ccccc4c4ccccc4c32)cc1
photoluminescence quantum yield (in ClCCl): 0.451

SMILES: CCCCCCC(CCCCCC)N1C(=O)c2cccc3c(-c4cc(OC)c(OC)c(OC)c4)ccc(c23)C1=O
photoluminescence quantum yield (in CCCCCC): 0.41
photoluminescence quantum yield (in CCCCCCCCCCCCCC): 0.51
photoluminescence quantum yield (in CCCCCCCCCCCO): 0.26
photoluminescence quantum yield (in CCCCO): 0.022
photoluminescence quantum yield (in CN(C)C=O): 0.0065
photoluminescence quantum yield (in Cc1ccccc1): 0.71
photoluminescence quantum yield (in ClC(Cl)Cl): 0.65

SMILES: COC(=O)c1ccc2ccc3cccc4ccc1c2c34
photoluminescence quantum yield (in C1CCOC1): 0.68
photoluminescence quantum yield (in CC#N): 0.79
photoluminescence quantum yield (in CCCCCC): 0.63
photoluminescence quantum yield (in CCO): 0.81
photoluminescence quantum yield (in CN(C)C=O): 0.74
photoluminescence quantum yield (in CO): 0.69
photoluminescence quantum yield (in Cc1ccccc1): 0.76
photoluminescence quantum yield (in ClCCl): 0.56

SMILES: CCn1c2ccccc2c2cc(/C=C/c3cccc[n+]3CCCS(=O)(=O)[O-])ccc21
photoluminescence quantum yield (in C1CCOC1): 0.09
photoluminescence quantum yield (in CC#N): 0.03
photoluminescence quantum yield (in CC(C)=O): 0.03
photoluminescence quantum yield (in Cc1ccccc1): 0.06

SMILES: O=C(O)C1=C/C(=C/C=[N+]2/c3cc(O)c(C[C@@H]4O[C@H](CO)[C@@H](O)C(O)[C@H]4O)cc3C[C@H]2C(=O)O)C[C@H](C(=O)O)N1 (some centres not stated)
photoluminescence quantum yield (in CO): 0.0015
photoluminescence quantum yield (in O): 0.0007
photoluminescence quantum yield (in OCCO): 0.0041
photoluminescence quantum yield (in [2H]O[2H]): 0.001

SMILES: Cc1ccc(NC(=O)c2ccc(N(C)C)cc2)cc1
photoluminescence quantum yield (in C1CCCCC1): 0.0015
photoluminescence quantum yield (in C1CCOC1): 0.0028
photoluminescence quantum yield (in CC#N): 0.0027
photoluminescence quantum yield (in CCOCC): 0.0034

SMILES: CC1=N/C(=C\c2ccc(N(C)C)cc2)C(=O)N1C
photoluminescence quantum yield (in C1CCCCC1): 0.0001
photoluminescence quantum yield (in C1CCOC1): 0.0004
photoluminescence quantum yield (in CC#N): 0.0003
photoluminescence quantum yield (in CO): 0.0003
photoluminescence quantum yield (in CS(C)=O): 0.0002
photoluminescence quantum yield (in ClCCl): 0.0009
photoluminescence quantum yield (in O): 0.0002

SMILES: CCC1=C(C)C(=O)n2c1cc1c(C)cc(C)n1c2=O
photoluminescence quantum yield (in CO): 0.89
photoluminescence quantum yield (in CS(C)=O): 0.92
photoluminescence quantum yield (in ClC(Cl)Cl): 0.96
photoluminescence quantum yield (in c1ccccc1): 1

SMILES: CCC1=C(C)C2=Cc3c(I)c(I)c(I)n3[B-](F)(F)[N+]2=C1C
photoluminescence quantum yield (in C1CCCCC1): 0.065
photoluminescence quantum yield (in CC(C)=O): 0.029
photoluminescence quantum yield (in CCO): 0.037
photoluminescence quantum yield (in CCOC(C)=O): 0.037
photoluminescence quantum yield (in CO): 0.032
photoluminescence quantum yield (in OCC(F)(F)F): 0.021

SMILES: CN(C)c1ccc(/C=C/c2cccnn2)cc1
photoluminescence quantum yield (in ClCCl): 0.02

SMILES: COC(=O)C(Cc1ccc2oc(-c3ccc(N(C)C)cc3)nc2c1)NC(=O)OC(C)(C)C (configuration not stated)
photoluminescence quantum yield (in C1CCCCC1): 1
photoluminescence quantum yield (in C1CCOC1): 0.88
photoluminescence quantum yield (in C1COCCO1): 1
photoluminescence quantum yield (in CC1CCCO1): 1
photoluminescence quantum yield (in CC1COC(=O)O1): 1
photoluminescence quantum yield (in CC#N): 0.95
photoluminescence quantum yield (in CC(C)=O): 1
photoluminescence quantum yield (in CC(C)CC(C)(C)C): 0.95
photoluminescence quantum yield (in CC(C)CO): 1
photoluminescence quantum yield (in CC(C)O): 1
photoluminescence quantum yield (in CC(C)OC(C)C): 1
photoluminescence quantum yield (in CC(O)CO): 0.99
photoluminescence quantum yield (in CCC(C)CC): 0.92
photoluminescence quantum yield (in CCCCC): 0.95
photoluminescence quantum yield (in CCCCCC): 0.93
photoluminescence quantum yield (in CCCCCCCCC): 1
photoluminescence quantum yield (in CCCCCCCCCC): 0.93
photoluminescence quantum yield (in CCCCCCCO): 1
photoluminescence quantum yield (in CCCCCCO): 1
photoluminescence quantum yield (in CCCCCO): 1
photoluminescence quantum yield (in CCCCO): 0.99
photoluminescence quantum yield (in CCO): 0.98
photoluminescence quantum yield (in CCOC(C)=O): 1
photoluminescence quantum yield (in CCOCC): 0.99
photoluminescence quantum yield (in CN(C)C=O): 0.92
photoluminescence quantum yield (in CO): 0.81
photoluminescence quantum yield (in COCCOC): 0.7
photoluminescence quantum yield (in CS(C)=O): 1
photoluminescence quantum yield (in Cc1ccccc1): 0.9
photoluminescence quantum yield (in Cc1ccccc1C): 0.99
photoluminescence quantum yield (in ClC(Cl)Cl): 0.68
photoluminescence quantum yield (in ClCCl): 1
photoluminescence quantum yield (in NC=O): 0.71
photoluminescence quantum yield (in OC1CCCCC1): 0.91
photoluminescence quantum yield (in OCCO): 0.76
photoluminescence quantum yield (in c1ccccc1): 0.97

SMILES: CCCCCCCCN1c2ccccc2Sc2cc(/C=C/c3ccc(N(c4ccc(/C=C/c5ccc6c(c5)Sc5ccccc5N6CCCCCCCC)cc4)c4ccc(/C=C/c5ccc(/C=C/c6ccc(N(c7ccc(/C=C/c8ccc9c(c8)Sc8ccccc8N9CCCCCCCC)cc7)c7ccc(/C=C/c8ccc9c(c8)Sc8ccccc8N9CCCCCCCC)cc7)cc6)c6nsnc56)cc4)cc3)ccc21
photoluminescence quantum yield (in C1CCOC1): 0.024
photoluminescence quantum yield (in CCOC(C)=O): 0.125
photoluminescence quantum yield (in CN(C)C=O): 0.001
photoluminescence quantum yield (in Cc1ccccc1): 0.278
photoluminescence quantum yield (in ClC(Cl)Cl): 0.061
photoluminescence quantum yield (in ClCCl): 0.003

Next, values leading:

photoluminescence quantum yield (in ClCCl): 0.45
SMILES: C[Si]1(C)c2ccccc2-c2cc3c(cc21)-c1ccccc1[Si]3(C)C

photoluminescence quantum yield (in C1CCCCC1): 0.85
photoluminescence quantum yield (in CCOC(C)=O): 0.21
SMILES: CC1=[N+]2C(=C(c3ccc(Br)cc3)c3ccc(C)n3[B-]2(F)F)C=C1c1cc2n(c1)[B-](F)(F)[N+]1=CC=CC1=C2c1c(C)cc(C)cc1C

photoluminescence quantum yield (in CCO): 0.64
photoluminescence quantum yield (in ClC(Cl)Cl): 0.36
SMILES: CCOc1ccc2c(-c3nc(-c4ccccc4F)no3)cc(=O)oc2c1

photoluminescence quantum yield (in ClCCl): 0.1
SMILES: Nc1cccc2c1ccc1[n+]2[B-](F)(F)n2c-1cc1c3ccccc3c3ccccc3c12

photoluminescence quantum yield (in ClCCl): 0.158
SMILES: c1ccc(-n2nc(-c3ccc(-c4ccc5c(c4)C(c4ccccc4)(c4ccccc4)c4ccccc4-5)cc3)nc2-c2ccccn2)cc1

photoluminescence quantum yield (in ClC(Cl)Cl): 0.15
SMILES: Cc1ccc(/C2=c3\cc/c(o3)=C(\c3ccc(C)cc3)c3ccc([nH]3)-c3ccc4n3[P-](=O)(=O)[N+]3=C(C=CC3=C4c3ccc[nH]3)c3ccc2[nH]3)cc1

photoluminescence quantum yield (in ClC(Cl)Cl): 0.893
SMILES: CCN(CC)c1ccc2cc(-c3ccc(-c4ccc5ccc6c(-c7ccc(-c8cc9ccc(N(CC)CC)cc9oc8=O)cc7)ccc7ccc4c5c76)cc3)c(=O)oc2c1

photoluminescence quantum yield (in ClCCl): 0.46
SMILES: COc1ccc(N(c2ccccc2)c2ccc3ccc4c(N(c5ccccc5)c5ccc(OC)cc5)ccc5ccc2c3c54)cc1

photoluminescence quantum yield (in ClC(Cl)Cl): 0.32
SMILES: COc1ccc2c(c1)CCc1c(-c3ccccc3)c3n(c1-2)[B-](F)(F)[N+]1=C2C(=C(c4ccccc4)C1=N3)CCc1ccccc12

photoluminescence quantum yield (in CCO): 0.31
SMILES: CC(C)(C)Nc1cc2oc3cc(NC(C)(C)C)c(F)cc3c(=O)c2cc1F

photoluminescence quantum yield (in ClC(Cl)Cl): 0.32
SMILES: CC1=[N+]2C(=C(c3c4ccccc4cc4ccccc34)c3ccc(/C=C/C(C)(C)C)n3[B-]2(F)F)C=C1

photoluminescence quantum yield (in ClCCl): 0.215
SMILES: COc1cccc2cc(C)c3c4ccccc4n(C)c3c12

photoluminescence quantum yield (in ClC(Cl)Cl): 0.3
SMILES: CN(C)c1ccc(-c2ccc(-c3ccc(N(C)C)cc3)c3nc(-c4ccccc4)c(-c4ccccc4)nc23)cc1

photoluminescence quantum yield (in ClCCl): 0.1
SMILES: O=c1oc2ccccc2c2c1c(=O)oc1cc(O)cc(O)c12

photoluminescence quantum yield (in CC#N): 0.39
photoluminescence quantum yield (in CCO): 0.69
photoluminescence quantum yield (in CN(C)C=O): 0.39
photoluminescence quantum yield (in O): 0.34
SMILES: CCOC(=O)c1ccccc1-c1c2ccc(=[N+](CC)CC)cc-2oc2cc(N(CC)CC)ccc12

photoluminescence quantum yield (in C1CCOC1): 0.059
SMILES: CN(C)c1ccc(C(=Cc2ccc(C=O)cc2)c2ccc(N(C)C)cc2)cc1

photoluminescence quantum yield (in CCO): 0.11
photoluminescence quantum yield (in CO): 0.09
photoluminescence quantum yield (in CS(C)=O): 0.29
SMILES: CN1/C(=C/C=C(/C=C/C2=[N+](C)c3ccccc3C2(C)C)c2ccccc2)C(C)(C)c2ccccc21

photoluminescence quantum yield (in C1COCCO1): 0.58
SMILES: CC(C)(C)c1cc(-c2ccc(-c3cc(C(C)(C)C)cc(C(C)(C)C)c3)cc2)cc(C(C)(C)C)c1

photoluminescence quantum yield (in C1CCOC1): 0.009
photoluminescence quantum yield (in ClC(Cl)Cl): 0.053
photoluminescence quantum yield (in ClCCl): 0.019
SMILES: COc1cc2cc(OC)c(C#Cc3ccc([N+](=O)[O-])cc3)cc2cc1C#Cc1ccc([N+](=O)[O-])cc1

photoluminescence quantum yield (in ClCCl): 0.98
SMILES: O=P1(c2ccccc2)C2=C(c3ccccc31)S(=O)(=O)c1ccccc12 (configuration not stated)

photoluminescence quantum yield (in ClCCl): 0.0006
SMILES: Cc1ccc(N(c2ccc(C)cc2)c2ccc(Oc3nnc(Cl)nn3)cc2)cc1
